{"source": "patent US9381273B2", "about": "“Scaffolds with oxygen carriers, and their use in tissue regeneration” (Yissum Research Development Company of the Hebrew …, priority 2008, dated 2016)", "key": {"[1]": {"tested_on": "osteocalcin", "experiment": "Host osteocalcin gene expression in vivo, BLI in OC/Luc transgenic mice", "parameters": "species or system OC/Luc Tg mice", "details": "fibrin gel with MSCs, 5 or 10% PFTBA pooled", "description": "Osteocalcin gene expression in vivo—In order to analyze the effect of PFTBA supplementation on osteocalcin gene expression in vivo, transgenic mice (Oc-Luc), which harbor the Luc gene under the control of the osteogenic tissue-specific promoter, osteocalcin (Bar, Zilberman et al. 2003) were utilized. In order to monitor Luc activity in real-time a quantitative, the BLI system with the non-invasive cooled charge-coupled device (CCCD) camera was used. In this model, osteogenic activity in the transgenic mice was reported by Luc expression, which is activated by the osteocalcin promoter. This activity is detected by the CCCD as an emitted light following an injection of luciferin. The result values were normalized to constitutive tail expression of Luc, as previously described (Bar, Zilberman et al. 2003), so that the different mice that express the transgene with different intensities could be compared. In this experiment, 1×10^6 tet-off BMP2 cells in fibrin gel supplemented with 5 or 10% PFTBA, or not supplemented at all were implanted."}, "[2]": {"tested_on": "C3H/HeN mice", "experiment": "Cell-mediated posterior spinal fusion, micro CT", "format": "in vivo", "details": "10% PFTBA"}, "[3]": {"tested_on": "tet-off BMP-2 MSCs", "experiment": "LDH release cytotoxicity assay of MSCs in fibrin gel in vitro", "format": "cell-based", "details": "10% PFTBA (w/v) in 100 μl fibrin gel, 10^6 MSCs, days 1 and 3 after cell seeding", "description": "Effect of PFTBA on cell survival and oxygen levels—10^6 tet-off BMP-2 MSCs were suspended in 100 μl fibrin gel and cultured in 35-mm plates. In these conditions, the inner region of the hydrogel is hypoxic (data not shown). The experimental groups included hydrogels which included 0% or 10% PFTBA (w/v). Cell death was measured using the LDH release cytotoxicity assay on Days 1, 3, 7 and 14. […] Note that cytotoxicity was reduced over time, probably since nutrients and oxygen supply were more available to the remaining surviving cells. In a separate experiment, oxygen levels were measured in the center of MSC-loaded gels ([…] in 300 μl fibrin gel) using the Microx TX3 oxygen sensor (Presens, Precision Sensing GmbH, Regensburg, Germany)."}, "[4]": {"tested_on": "C3H/HeN mice", "experiment": "Ectopic bone formation by subcutaneous hydrogel implants with Tet-off BMP2 MSCs, micro CT and histology", "details": "for bone volume of ectopic bone: SC implant, mean±standard error", "experimental": "Ectopic implantations—At near confluency, Tet-off BMP2 cells or Tet-off BMP2 Luc/GFP cells were trypsinized and counted using the trypan blue exclusion method. Aliquots of cells (one million Tet-off BMP2 cells or 3 million Tet-off BMP2 Luc/GFP cells) were resuspended in 50111 of fibrin or silk gel. Five, 10 or 20% [weight per volume (w/v)] Heptacosafluorotributylamine (Perfluorotributylamine, PFTBA, Sigma catalogue number H5262; Sigma-Aldrich, St Louis, Mo., USA) was added to the hydrogel just before implantations.\nThe cell-hydrogel mixture was injected subcutaneously in 8 weeks old female C3H/HeN mice, as follows: mice were anesthetized with a mixture of xylazine and ketamine (0.15% xylazine and 0.85% ketamine), which was injected intraperitoneally (i.p.) at 1 μl/g body weight. The area of injection was shaved and cleaned using 70% ethanol. Using 27G tuberculin syringe the cells-gel mixture was injected subcutaneously. Each mouse received 3 or 4 implants, consistent of 50 μl hydrogel in which cells and PFTBA were mixed. Mice where sacrificed after two weeks, and implants were harvested and fixed in 4% formalin.\nAnalysis of bone formation using micro CT imaging—In order to quantify bone formation in the ectopic implants, a high-resolution μCT system, Desktop μCT 40 (Scanco Medical A G, Bassersdorf, Switzerland) was used. Micro-tomographic slices were acquired at 1000 projections and reconstructed at a spatial nominal resolution of 12 μm. A constrained 3-D Gaussian filter (σ=0.8 and support=1) was used to partly suppress the noise in the volumes. The mineralized tissue was segmented from the hydrogel using a global thresholding procedure (Muller, R., and Ruegsegger, P. 1997, Stud Health Technol Inform 40, 61-79). In addition to the visual assessment of structural images, morphometric indices were determined from the microtomographic datasets using direct 3D morphometry (Hildebrand, T., 1999, J Bone Miner Res 14, 1167-1174). […] The following morphometric indices were determined for the newly formed bone: (i) volume of bone tissue; (ii) bone mineral density; (iii) trabecular thickness; (iv) anisotropy; (v) bone volume density and (vi) trabecular separation.\nHistological analysis of bone formation—Harvested ectopic implants and regenerated limbs were processed for histology and stained as described (Sheyn, Kimelman-Bleich et al. 2007). In short, samples were fixed in 70% ethanol, passed through a graded series of ethanols, and embedded in paraffin. Sections 5-8 μm thick were cut from each paraffin block using a motorized microtome (Leica Microsystems, Wetzlar, Germany). Masson trichrom staining was performed in order to evaluate the histomorphology of the mineralized tissue."}, "[5]": {"tested_on": "C3H/HeN mice", "experiment": "Radius bone defect regeneration, micro CT", "details": "2.5-mm radius defect, fibrin gel with MSCs, 14 days", "experimental": "Briefly, C3H/HeN female mice aged 6-8 weeks (n=16) were anesthetized using ketamine-xylazine mixture injected intraperitoneal. The skin of the forelimb was swabbed with isopropyl alcohol (70%). The skin was cut and 2.5 mm-long defect was created in the radius bone. Approximately one million Tet-off BMP2 cells were suspended in fibrin gel (Baxter) and supplemented with 5 or 10% PFTBA (Sigma, n=5 for each group) or not supplemented at all (n=6). The cell-gel mixture was incubated for 5 minutes in room temperature (RT) under sterile conditions to allow the fibrin to gel, and was subsequently implanted into the defect site. The mice were sacrificed 2 weeks post-transplantation; limbs were harvested and scanned using the μCT in order to analyze bone formation.\nA quantitative morphometric analysis of the bone formation in nonunion fractures, was undertaken using μCT as previously described (Tai, K., et al., 2008, Tissue Eng Part A 14, 1709-1720). Mouse forelimbs, including ulna and radius, as well as native muscle and soft tissue were scanned using a Desktop Cone-Beam Micro-CT Scanner (μCT 40; Scanco Medical AG, Bruttisellen, Switzerland) at a spatial nominal resolution of 20 mm. A constrained 3D Gaussian filter (sigma=0.8 and support=1) was used to partly suppress the noise in the volumes. The bone tissue was segmented from marrow and soft tissue using a global thresholding procedure. In the nonunion fracture site, the evaluation was done only in the central 2-mm of the bone defect, including only newly formed bone. Morphometric indices were determined as described earlier."}, "[6]": {"tested_on": "tet-off BMP2 Luc/GFP cells", "experiment": "Cell survival in ectopic implants, bioluminescence imaging (BLI)", "format": "in vivo, C3H/HeN mice", "details": "fibrin gel, 5% and 10% PFTBA groups pooled", "description": "Imaging of cell viability in vivo—Tet-off BMP2 Luc/GFP Cell viability in the ectopic implants was quantified using the BLI system as was described (Bar, Zilberman et al. 2003). This CCCD tracking system (Roper Chemiluminescence Imaging System) consists of a CCCD camera (model LN/CCD-1300EB; Roper Scientific Inc.) equipped with an ST-133 controller and a 50-mm Nikon lens (Nikon Inc.). In this system, a pseudocolor image represents light intensity (blue signifies least intense and red most intense). The integrated light is the result of 2-minute exposure and acquisition. This CCCD camera converts photons to electrons with an efficiency of approximately 90% in the wavelength emission range of luciferin and converts approximately 1.8 electrons per count. Thus, every count represents 2 photons. The measurement is a total integrated signal of a constant exposure interval. […] The measurement can be verified by using a progressively larger region of interest (ROI) and by subtracting background readings. An increase in the ROI has no appreciable effect on the total intensity that is measured. Before light detection, the mice were anesthetized with a ketamine-xylazine mixture, which is injected intraperitoneally at 1 μl/g body weight. […]"}, "[7]": {"details": "fibrin gel with MSCs, 10% PFTBA (w/v), two weeks"}}}
{"smiles": "FC(F)(F)C(F)(F)C(F)(F)C(F)(F)N(C(F)(F)C(F)(F)C(F)(F)C(F)(F)F)C(F)(F)C(F)(F)C(F)(F)C(F)(F)F", "note": "[PFTBA, Heptacosafluorotributylamine]", "values": [{"measurement": "osteocalcin activity", "setting": "[1]; day 5 post-implantation", "value": "2.76±0.48 relative light units (RLU; implant/tail)"}, {"measurement": "osteocalcin activity versus no PFTBA group", "setting": "[1]; day 7 and 14", "value": "no significant difference was noted"}, {"measurement": "average connectivity density elevation versus no PFTBA group", "setting": "[2]; week 3 post-implantation", "value": 1.29, "unit": "fold"}, {"measurement": "bone volume density elevation versus no PFTBA group", "setting": "[2]; week 3 post-implantation", "value": 1.25, "unit": "fold"}, {"measurement": "bone volume difference versus no PFTBA group", "setting": "[2]; week 3 post-implantation", "value": "this difference was not noted"}, {"measurement": "trabecular number increase versus no PFTBA group", "setting": "[2]; week 3 post-implantation", "value": 1.44, "unit": "fold"}, {"measurement": "bone volume of spinal fusion mass", "setting": "[2]; fibrin gel with MSCs, lumbar paravertebral muscle, 6 weeks post implantation", "value": "70.71±2.7", "unit": "mm^3"}, {"measurement": "cell death (LDH release cytotoxicity) versus 0% PFTBA", "setting": "[3]", "value": "significantly fewer cells died"}, {"measurement": "bone volume of ectopic bone", "setting": "[4]; fibrin gel with MSCs, 5% PFTBA (w/v), two weeks", "value": "0.98±0.26", "unit": "mm^3"}, {"measurement": "bone volume of ectopic bone", "setting": "[4]; [7]", "value": "1.77±0.47", "unit": "mm^3"}, {"measurement": "increase in bone volume compared with the 0% PFTBA group", "setting": "[4]; [7]", "value": 2.5, "unit": "fold"}, {"measurement": "histology of implants (bone, hypertrophic cartilage, bone marrow)", "setting": "[4]; fibrin gel, 0%, 5%, 10% PFTBA, day 14, Masson trichrom", "value": "No histological difference was found"}, {"measurement": "volume of the ectopic bone versus no PFTBA group", "setting": "[4]; two weeks, 1-tailed T-test p=0.033", "value": "significant differences were found"}, {"measurement": "volume of bone formed versus no PFTBA", "setting": "[5]; 5 or 10% PFTBA (w/v)", "value": "no significant difference"}, {"measurement": "BMD elevation of the formed bone, supplemented versus non-supplemented", "setting": "[5]; 5 or 10% PFTBA", "value": "1.1-1.2"}, {"measurement": "trabecular thickness elevation versus no-PFTBA group", "setting": "[5]; 5 or 10% PFTBA", "value": 1.3, "unit": "fold"}, {"measurement": "luciferase activity (cell survival)", "setting": "[6]; day 3 post implantation", "value": "21,519±2,047 integrated light units (ILU)"}, {"measurement": "luciferase activity (cell survival) versus no-PFTBA group", "setting": "[6]; day 7 post implantation", "value": "no significant difference between the groups was found"}]}
